Patent US6534499B2, “N-substituted-N′-substituted urea derivatives and the use thereof as TNF-α production inhibitory agents” (Santen Pharmaceutical Co., Ltd., priority 1999, dated 2003)

System: not given
Assay: not given
Conditions: not given

melting point	Structure (SMILES)
94.5 to 95.5 °C	O=C(NCC1CCN(C(=O)OCc2ccccc2)CC1)N(CCO)CCC1CCCCC1 [Compound 1-18, 1-[[1-(Benzyloxycarbonyl)-4-piperidyl]methyl]-3-(2-cyclohexylethyl)-3-(2-hydroxy-ethyl) urea]
170 °C (dec.)	CC(=O)SCCN(CCC1CCCCC1)C(=O)NCCN1CCC(N(C)C)CC1.Cl.Cl [Compound 6-2, 1-[2-(Acetylthio)ethyl]-1-(2-cyclohexylethyl)-3-[2-[4-(dimethylamino)-1-piperidyl]ethyl]urea di-hydrochloride]

System: TNF-α production induced by LPS (plasma TNF-α)
Assay: In vivo test: plasma TNF-α level in LPS-administered mice
Conditions: female mice; 10 mg/kg subcutaneously immediately after LPS i.p.; plasma one hour after LPS; mouse TNF-α ELISA
Description: (§1) Each candidate compound was inspected for the effect of inhibiting TNF-α production induced by the stimulation with lipopolysaccharide (LPS), by an in vitro or in vivo test according to the method proposed by McGeehan et al. (Nature, 1994, 370:558-561).
Animals used herein were about 7-week-old female mice (5 animals per group) having a body weight of about 20 g. The LPS herein used was derived from Salmonella and it was dissolved in phosphate-buffered physiological saline prior to the practical use (20 μg/ml). Each candidate compound was dissolved or suspended in a 2% dimethyl sulfoxide-containing physiological saline to give a uniform solution or suspension (1 mg/ml).
The LPS solution (10 ml/kg) prepared above was intraperitoneally administered to each test mouse. Immediately after the administration of the LPS solution, the solution of each candidate compound prepared above (10 ml/kg, containing 10 mg/kg of the candidate compound) was subcutaneously injected to each animal. After one hour from the administration of the LPS, each animal was decapitated, the blood was collected from the animal and the blood was centrifuged at 4° C., 3000 rpm for 5 minutes. The resulting plasma was inspected for the level of TNF-α using the mouse TNF-α -specific ELISA kit. In this connection, any TNF-α was not detected in the plasma derived from the animal group free of the LPS-administration (control group).
The rate of TNF-α production-inhibitory effect observed for each candidate compound was determined according to the following equation:
Inhibitory Rate (%)=100×(A−B)/A
Wherein A is the level of TNF-α detected in the plasma derived from the animal group to which any candidate compound was not administered and B is the level of TNF-α detected in the plasma derived from the animal group to which a candidate compound was administered.

Structure (SMILES)	Inhibitory Rate (%) of TNF-α production
CCN1CCCC1CNC(=O)N(CCSC(C)=O)CCC1CCCCC1 (racemic) [Compound 3-17, 1-[2-(Acetylthio)ethyl]-1-(2-cyclohexylethyl)-3-[[(2RS)-1-ethyl-2-pyrrolidinyl]methyl] urea]	52%
CC(=O)SCCN(CCC1CCCCC1)C(=O)NCCN1CCCC1 [Compound 3-2, 1-[2-(Acetylthio)ethyl]-1-(2-cyclohexylethyl)-3-[2-(1-pyrrolidinyl)ethyl]-urea]	50%
CC(=O)SCCN(CCC1CCCCC1)C(=O)NCCCN1CCCC1 [Compound 3-3, 1-[2-(Acetylthio)ethyl]-1-(2-cyclohexylethyl)-3-[3-(1-pyrrolidinyl)propyl]-urea]	64%
CC(=O)SCCN(CCC1CCCCC1)C(=O)NCCCN1CCCCC1 [Compound 3-4, 1-[2-(Acetylthio)ethyl]-1-(2-cyclohexylethyl)-3-[3-(1-piperidyl)propyl]urea]	51%
CC(=O)SCCN(CCC1CCCCC1)C(=O)NCCN1CCCCCC1 [Compound 3-9, 1-[2-(Acetylthio)ethyl]-1-(2-cyclohexylethyl)-3-[2-(l-homopiperidyl)ethyl]-urea]	76%
CC(=O)SCCN(CCC1CCCCC1)C(=O)NCCN1CCCCC1.Cl [Compound 6-1, 1-[2-(Acetylthio)ethyl]-1-(2-cyclohexylethyl)-3-[2-(1-piperidyl)-ethyl]urea hydrochloride]	78%
CC(=O)SCCN(CCC1CCCCC1)C(=O)NCC1CCN(C)CC1.Cl [Compound 6-3, 1-[2-(Acetylthio)ethyl]-1-(2-cyclohexylethyl)-3-[(1-methyl-4-piperidyl)-methyl]urea hydrochloride]	50%
CSCCN(CCC1CCCCC1)C(=O)NCCN1CCCCC1.Cl [Compound 6-4, 1-(2-Cyclohexylethyl)-1-[2-(methylthio)ethyl]-3-[2-(1-piperidyl)ethyl]urea hydrochloride]	59%

System: TNF-α produced by the human monocyte strain THP-1
Assay: In vitro test: TNF-α production by THP-1 cells induced by stimulation with LPS
Format: cell-based
Conditions: 2 h; compound 10^−5M; THP-1 cells 10^6 cells/ml; LPS 2 μg/ml; 37° C., two hours; human TNF-α ELISA; read-out: Inhibitory Rate (%) of TNF-α production
Description: as §1
The test was carried out by, determining the amount of TNF-α produced by the human monocyte strain THP-1 induced by the stimulation with LPS.
The culture medium used in this test was RPMI 1640 culture medium supplemented wiTNFetal calf serum (10%), L-glutamine (2 mM), 2-mercaptoethanol (50 μM), penicillin (50 units/ml) and streptomycin (50 μg/ml).
Regarding the cells, the human monocyte strain THP-1 cells cultivated in the foregoing culture medium were centrifuged at 100 xg for 5 minutes to remove the supernatant and then again suspended in a fresh culture medium prior to the practical use. The LPS used herein was derived from S. Typhimurium and this was dissolved in purified water and then diluted with the culture medium prior to use. Each compound to be tested was dissolved in dimethyl sulfoxide (DMSO) and diluted with the culture medium prior to the practical use.
The cells (10^6 cells/ml) prepared according to the foregoing method were admixed with the LPS (2 μg/ml) and a compound to be tested (10^−5M), the cells were incubated at 37° C. for two hours and then centrifuged at 1000 xg for 5 minutes. The resulting supernatant of the culture medium was inspected for the level of TNF-α using the human TNF-α -specific ELISA kit. In this connection, it was confirmed that the supernatant obtained by cultivating the cells in the culture medium free of any LPS (control) never included any TNF-α.
The rate of the TNF-α production inhibitory effect observed for each candidate compound was determined according to the following equation: […]
Wherein A is the level of TNF-α detected in the supernatant obtained from the culture medium free of any candidate compound and B is the level of TNF-α detected in the supernatant obtained from the culture medium containing a candidate compound.

Structure (SMILES)	inhibition at 10 µM
CC(=O)SCCN(CCc1ccccc1)C(=O)N[C@@H](Cc1ccccc1)CN1CCN(C)CC1 [Compound 3-6, 1-[2-(Acetylthio)ethyl]-3-[(1S)-1-benzyl-2-(4-methylpiperazin-1-yl)ethyl]-1-phenethyl urea]	94%
CC(=O)SCCN(CCC1CCCCC1)C(=O)NCCN1CC=CCC1 [Compound 3-13, 1-[2-(Acetylthio)ethyl]-1-(2-cyclohexylethyl)-3-[2-(1,2,5,6-tetrahydropyridin-1-yl)ethyl] urea]	66%
CC(=O)SCCN(CCC1CCCCC1)C(=O)NCCN1CCC(N(C)C)CC1.Cl.Cl [Compound 6-2, 1-[2-(Acetylthio)ethyl]-1-(2-cyclohexylethyl)-3-[2-[4-(dimethylamino)-1-piperidyl]ethyl]urea di-hydrochloride]	58%
